Test results: patent US12215106B2, “Pharmaceutical compounds and therapeutic methods” (RUTGERS, THE STATE UNIVERSITY OF NEW JERSEY, priority 2018, dated 2025)
Where a name gives a salt, the structure may show the parent alone. Read-outs that look alike come from different tables or passages of the source. Marks after values point to notes of the source that are not given here.

Test: Plasma pharmacokinetics and brain distribution after single IV, IP and oral administration
Type: in vivo
Settings: male, C57BL/6, mouse
Description: The objective of this study was to investigate the plasma pharmacokinetics and brain distribution of Compound (14 in male C57BL/6 mice following a single intravenous, intraperitoneal and oral administration. A group of sixty-three male mice were divided into three groups (Group 1: 2 mg/kg/IV; Group 2: 10 mg/kg/IP and Group 3: 10 mg/kg/PO) with each group comprising of twenty-one mice.
Animals in Group 1 were administered intravenously with Compound 15 solution formulation in 5% NMP, 5% Solutol HS-15, 30% PEG-400 and 60% Captisol (20% w/v) at 2 mg/kg dose. […] Considering mortality intravenous dose was reduced to 2 mg/kg.
Animals in Group 2 and 3 were administered with Compound 15 solution formulation in 5% NMP, 5% Solutol HS-15, 30% PEG-400 and 60% Captisol (20% w/v) at a dose of 10 mg/kg by intraperitoneal and oral route respectively.
(§1) Blood samples (approximately 60 μL) were collected under light isoflurane anesthesia from retro orbital plexus from a set of three mice at 0.08, 0.35, 1, 3, 6, 12 and 24 hr. Plasma samples were separated by centrifugation of whole blood and stored below −70±10° C. until bioanalysis. Immediately after collection of blood, brain samples were collected from set of three mice at each time point. Brain samples were homogenized using ice-cold phosphate buffer saline (pH-7.4) in a ratio of 2 (buffer):1(brain); and homogenates were stored below −70±10° C. until analysis. Total homogenate volume was three times the brain weight. All samples were processed for analysis by protein precipitation using acetonitrile and analyzed with fit-for-purpose LC/MS/MS method (LLOQ2.00 ng/mL for plasma and 3.00 ng/g for brain). Pharmacokinetic parameters were calculated using the non-compartmental analysis tool of Phoenix WinNonlin® (Version 7.0). Pharmacokinetic parameters of Compound 15 are summarized below.
The objective of this study was to investigate the plasma pharmacokinetics and brain distribution of Compound 16 in male C57BL/6 mice following a single intravenous, intraperitoneal and oral administration. A group of sixty-three male mice were divided into three groups (Group 1: 10 mg/kg/IV; Group 2: 10 mg/kg/IP and Group 3: 10 mg/kg/PO) with each group comprising of twenty-one mice.
Animals in Group 1 were administered intravenously with Compound 16 solution formulation in 5% NMP, 5% Solutol HS-15 and 90% normal saline at 10 mg/kg dose.
Animals in Group 2 and 3 were administered with Compound 16 solution formulation in 5% NMP, 5% Solutol HS-15 and 90% normal saline at a dose of 10 mg/kg by intraperitoneal and oral route respectively.
as §1, with “(LLOQ—1.00” for “(LLOQ2.00”, “16” for “15”
The objective of this study was to investigate the plasma pharmacokinetics and brain distribution of Compound 17 in male C57BL/6 mice following a single intravenous, intraperitoneal and oral administration. A group of sixty-three male mice were divided into three groups (Group 1: 2 mg/kg/IV; Group 2: 10 mg/kg/IP and Group 3: 10 mg/kg/PO) with each group comprising of twenty-one mice. […]

[1] = brain, ip, 10 mg/kg, IP 10 mg/kg, read-out: Brain-to-plasma ratio
[2] = brain, po, 10 mg/kg, PO 10 mg/kg, read-out: Brain-to-plasma ratio
[3] = brain/plasma, iv, 10 mg/kg, IV 10 mg/kg, read-out: Brain-to-plasma ratio
[4] = in vivo, ip, 10 mg/kg, Brain concentration, individual animal
[5] = in vivo, ip, 10 mg/kg, Mean brain conc.
[6] = in vivo, ip, 10 mg/kg, Mean plasma conc.
[7] = in vivo, ip, 10 mg/kg, Plasma concentration, individual animal
[8] = in vivo, iv, 10 mg/kg, Brain concentration, individual animal
[9] = in vivo, iv, 10 mg/kg, Mean brain conc.
[10] = in vivo, iv, 10 mg/kg, Mean plasma conc.
[11] = in vivo, iv, 10 mg/kg, Plasma concentration, individual animal
[12] = in vivo, po, 10 mg/kg, Brain concentration, individual animal
[13] = in vivo, po, 10 mg/kg, Mean brain conc.
[14] = in vivo, po, 10 mg/kg, Mean plasma conc.
[15] = in vivo, po, 10 mg/kg, Plasma concentration, individual animal

With `Cc1nc2ccccn2c1-c1csc(Nc2ccc3c(c2)OC(F)(F)O3)n1` [Compound 16, N-(2,2-difluorobenzo[d][1,3]dioxol-5-yl)-4-(2-methylimidazo[1,2-a]pyridin-3-yl)thiazol-2-amine hydrochloride] the Kp at 3 h (brain and plasma, iv, 10 mg/kg, IV 10 mg/kg, read-out: Brain-to-plasma ratio) was 1.6, the Kp at 0.08 h [1] was 0.78 and the Kp at 0.35 h [1] was 1.6. It also gave a Kp at 1 h [1] of 2.01, a Kp at 3 h [1] of 4.34 and a Kp (brain, ip, 10 mg/kg, IP 10 mg/kg, read-out: brain-to-plasma ratio, range over time) of 0.78 to 4.34. The Kp (brain, iv, 10 mg/kg, IV 10 mg/kg, read-out: brain-to-plasma ratio, range over time) was 0.96 to 2.78, the Kp at 0.08 h [2] was 1.07 and the Kp at 0.35 h [2] was 1.83. It also gave a Kp at 1 h [2] of 1.67, a Kp at 3 h [2] of 1.73 and a Kp at 6 h (brain, po, 10 mg/kg, PO 10 mg/kg, 6 hr, read-out: Brain-to-plasma ratio) of 1.81. It also gave a Kp (brain, po, 10 mg/kg, PO 10 mg/kg, read-out: brain-to-plasma ratio, range over time) of 1.07 to 1.81, a Kp (brain, po, 10 mg/kg, summary data, read-out: Brain to plasma ratio following a single oral dose) of 1.81 and a Kp at 0.08 h [3] of 1.05. The Kp at 0.35 h [3] was 0.96, the Kp at 1 h [3] was 2.78 and the “Brain concentrations quantifiable up to” value (in vivo, ip, 10 mg/kg) was “up to 3 hr”. The “Plasma concentrations quantifiable up to” value (in vivo, ip, 10 mg/kg) was “up to 3 hr”, the “Brain concentration, individual animal” value (in vivo, ip, 10 mg/kg, 6 h) was 0.00 ng/g and the “Plasma concentration, individual animal” value (in vivo, ip, 10 mg/kg, 6 h) was 0.00 ng/mL. The “Brain concentration, individual animal” value (in vivo, ip, 10 mg/kg, 12 h) was 0.00 ng/g, the “Plasma concentration, individual animal” value (in vivo, ip, 10 mg/kg, 12 h) was 0.00 ng/mL and the “Brain concentration, individual animal” value (in vivo, ip, 10 mg/kg, 24 h) was 0.00 ng/g. The “Plasma concentration, individual animal” value (in vivo, ip, 10 mg/kg, 24 h) was 0.00 ng/mL, the concentration at 6 h [4] was 0 ng/g and the concentration at 12 h [4] was 0 ng/g. The concentration at 24 h [4] was 0 ng/g, the concentration at 0.08 h [5] was 558 ng/g and the concentration at 0.35 h [5] was 680 ng/g. For the same compound, the concentration at 1 h [5] was 159 ng/g, the concentration at 3 h [5] was 6.21 ng/g and the concentration at 6 h [5] was 0 ng/g. It also gave a concentration at 12 h [5] of 0 ng/g, a concentration at 24 h [5] of 0 ng/g and a concentration at 0.08 h [6] of 713 ng/mL. It also gave a concentration at 0.35 h [6] of 426 ng/mL, a concentration at 1 h [6] of 79.1 ng/mL and a concentration at 3 h [6] of 1.43 ng/mL. It also gave a concentration at 6 h [6] of 0 ng/mL, a concentration at 12 h [6] of 0 ng/mL and a concentration at 24 h [6] of 0 ng/mL. The concentration at 0.08 h [7] was 688 ng/mL, the concentration at 0.35 h [7] was 391 ng/mL and the concentration at 1 h [7] was 62 ng/mL. The concentration at 6 h [7] was 0 ng/mL, the concentration at 12 h [7] was 0 ng/mL and the concentration at 24 h [7] was 0 ng/mL. The “Brain concentrations quantifiable up to” value (in vivo, iv, 10 mg/kg) was “up to 6 hr”, the “Vss, fold more than normal volume of total body water (0.7 L/kg)” value (in vivo, iv, 10 mg/kg) was 6.6 fold and the “Plasma concentration, individual animal” value (in vivo, iv, 10 mg/kg, 6 hr) was 0.00 ng/mL. For the same compound, the “Brain concentration, individual animal” value (in vivo, iv, 10 mg/kg, 12 hr) was 0.00 ng/g, the “Plasma concentration, individual animal” value (in vivo, iv, 10 mg/kg, 12 hr) was 0.00 ng/mL and the “Brain concentration, individual animal” value (in vivo, iv, 10 mg/kg, 24 hr) was 0.00 ng/g. The “Plasma concentration, individual animal” value (in vivo, iv, 10 mg/kg, 24 hr) was 0.00 ng/mL, the concentration at 12 hr [8] was 0 ng/g and the concentration at 24 hr [8] was 0 ng/g. It also gave a concentration at 0.08 h [9] of 1660 ng/g, a concentration at 0.35 h [9] of 514 ng/g and a concentration at 1 h [9] of 225 ng/g. It also gave a concentration at 3 h [9] of 9.01 ng/g, a concentration at 6 hr [9] of 5.13 ng/g and a concentration at 12 hr [9] of 0 ng/g. The concentration at 24 hr [9] was 0 ng/g, the concentration at 0.08 h [10] was 1580 ng/mL and the concentration at 0.35 h [10] was 535 ng/mL. For the same compound, the concentration at 1 h [10] was 80.7 ng/mL, the concentration at 3 h [10] was 5.64 ng/mL and the concentration at 6 hr [10] was 0 ng/mL. For the same compound, the concentration at 12 hr [10] was 0 ng/mL, the concentration at 24 hr [10] was 0 ng/mL and the concentration at 0.08 hr [11] was 2190 ng/mL. The concentration at 0.35 hr [11] was 417 ng/mL, the concentration at 1 hr [11] was 60.9 ng/mL and the concentration at 6 hr [11] was 0 ng/mL. For the same compound, the concentration at 12 hr [11] was 0 ng/mL, the concentration at 24 hr [11] was 0 ng/mL and the “Brain concentrations quantifiable up to” value (in vivo, po, 10 mg/kg) was “up to 12 hr”. For the same compound, the “Plasma concentrations quantifiable up to” value (in vivo, po, 10 mg/kg) was “up to 6 hr”, the “Brain concentration, individual animal” value (in vivo, po, 10 mg/kg, 0.08 h) was 115.35 ng/g and the Mean plasma conc. (in vivo, po, 10 mg/kg, 3 h) was 3.35^f ng/mL. The “Plasma concentration, individual animal” value (in vivo, po, 10 mg/kg, 12 h) was 0.00 ng/mL, the “Plasma concentration, individual animal” value (in vivo, po, 10 mg/kg, 24 h) was 0.00 ng/mL and the concentration at 0.08 h [12] was 221 ng/g. It also gave a concentration at 24 h [12] of 0 ng/g, a concentration at 0.08 h [13] of 187 ng/g and a concentration at 0.35 h [13] of 254 ng/g. It also gave a concentration at 1 h [13] of 48.9 ng/g, a concentration at 3 h [13] of 5.78 ng/g and a concentration at 6 h [13] of 4.52 ng/g. The concentration at 12 h [13] was 3.9 ng/g, the concentration at 24 h [13] was 0 ng/g and the concentration at 0.08 h [14] was 175 ng/mL. For the same compound, the concentration at 0.35 h [14] was 138 ng/mL, the concentration at 1 h [14] was 29.3 ng/mL and the concentration at 3 h [14] was 3.35 ng/mL. It also gave a concentration at 6 h [14] of 2.5 ng/mL, a concentration at 12 h [14] of 0 ng/mL and a concentration at 24 h [14] of 0 ng/mL. The concentration at 12 h [15] was 0 ng/mL, the concentration at 24 h [15] was 0 ng/mL and the bioavailability (plasma, po, 10 mg/kg, PO 10 mg/kg, AUClast considered, read-out: Oral bioavailability, % F) was 20%. For the same compound, the bioavailability (plasma, po, 10 mg/kg, summary data, read-out: Oral bioavailability) was 20%, the Tmax (plasma, IP 10 mg/kg) was 4.8 min and the clearance (plasma, IV 10 mg/kg, read-out: CL, plasma clearance) was 230 mL/min/kg. For the same compound, the half-life (plasma, IV 10 mg/kg, read-out: T1/2, terminal elimination half-life (converted)) was 25.8 min and the Tmax (plasma, PO 10 mg/kg) was 4.8 min.
